Paper PMC9814901, “One-pot synthesis of cyclic-aminotropiminium carboxylate derivatives with DNA binding and anticancer properties” (Communications Chemistry, 2022)
pIC50: −log10 of the molar value.

Columns and labels:
4T1 cell derived tumor = experiment: 4T1 xenograft tumor growth in Balb/C mice; format: in vivo, mouse; conditions: Balb/C 4T1 model, 6e 1 mg/kg/day, 6j 0.5 mg/kg/day, 6n 1 mg/kg/day
Description: To understand the potential and tolerance of 6e, 6j, and 6n compounds using in vivo system, we used Balb/C 4T1 cell line xenograft mouse model. Treatment was initiated after tumors reached a mean value of 20.47 mm^3 (day 8) and treated with 6e, 6j, and 6n at a dosage of 1 mg/kg/day, 0.5 mg/kg/day, and 1 mg/kg/day, respectively. Body weight and activity were observed three days post injection, every alternative day. […] Based on this study, we deduced that these compounds are well tolerated by the animals.
All animal experiments were approved by the Institutional Animal Ethics Committee, NISER, India (AH-214). Female BALB/c mice (aged 6–8 weeks, 18–20 g) were injected with 1 × 10^6 4T1 breast cancer cells into the mammary fat pad. After one week, 6j (0.5 mg/kg), 6e (1 mg/kg) and 6n (1 mg/kg) compounds were injected intraperitoneally in mice at the interval of every 24 h for a period of 21 days. Thereafter, the mice were sacrificed and the xenograft tumors were removed, weighed, and photographed.

HeLa cells [1] = experiment: Scratch (wound healing) assay in HeLa; format: cell-based; conditions: 6e 18 μM, 6j 19.23 μM, 6n 18.92 μM, 0 h to 24 h
Description: HeLa and HEK293 cells (0.25 × 10^6) were seeded into 12-well plates to grow in a monolayer for 24 h. A Scratch was made in the middle of the well using a sterile 200 µl pipette tip. The detached cells were removed by washing with 1x DPBS. The cell monolayers were treated for 18 h with 19 µM of 6n and 6j, and 18 µM of 6e with 10% DMEM. DMSO with 10% DMEM was used as a control. Images were collected at 0 h and 24 h under an inverted microscope (Ziess, Germany) at (4×) magnification. Cell migration was analyzed using ImageJ (NIH) software.

HeLa cells [2] = experiment: MTS cell viability assay in HeLa; format: cell-based; conditions: for pIC50: Homo sapiens
Description: (§1) We investigated the effect of nine cATC derivatives (6b/6d/6e/6f/6i/6j/6k/6l/6n) on cell viability in cancer cell-line HeLa and transformed normal cell-line HEK293. We treated cells with the varying concentrations of the compounds ranging from 10 nM to 50 μM for 18 h (optimized).
(§2) MTS assay (CellTiter 96® AQueous One Solution Cell Proliferation Assay (Promega, USA) was used to determine the cell viability. HeLa and HEK293 cells (20,000 cells in each well) were plated in 96 well plate and treated with 6e, 6j, and 6n varying concentrations of the compounds ranging from 10 nM to 50 μM for 18 h. The assay was carried out according to the manufacturer’s instructions. Finally, the plate was read in Varioskan™ LUX multimode microplate reader (Thermo Fisher Scientific) at 490 nm.
(§3) Cell scavenging activity was calculated using the following formula:
(§4) OD(490nm) (control) – OD(490nm) (Test)/OD(490nm) (control) × 100%
(§5) Cell Viability of the cell was calculated using the following formula: […]

[3] = MTS cell viability assay in HeLa; format: cell-based; conditions: human, HeLa cells; HeLa, 50 μM, 18 h
Description: as §1, §2, §3, §4, §5

HeLa cells [4] = experiment: Cell cycle analysis by flow cytometry (PI); format: cell-based; conditions: 18 h, 6e 18 μM, 6j 19 μM, 6n 19 μM
Description: HeLa cells were cultured in 6 well plates with initial density 0.5 × 10^6 cells/well. These cells were treated with the IC50 concentration of 6n, 6j, and 6e compounds for 18 h. The cells were washed with 1X PBS and fixed with 70% ethanol. After washing, cells were resuspended in 500 μl PBS containing Propidium Iodide (PI) (500 μg/ml), RNase A (1X), and Triton X-100 (0.1%), and incubated for 30 min in the dark. Finally, the cells were analyzed by flow cytometry (BD Biosciences, CA, USA). The relative proportions of cells with DNA content G0–G1 (2n), S phase (>2n but <4n), and G2/M phase (4n) were acquired and analyzed using CellQuest Pro software (BD Biosciences).

HeLa cells [5] = experiment: Confocal microscopy localization in HeLa cells; format: cell-based; conditions: IC50 concentrations, 12-18 h
Description: Herein we have shown that cATC fluorescent derivatives bind with ct-DNA in the non-intercalating mode. Thus we assumed that cATC derivatives might bind to the DNA, localizing within the nucleus and affecting the cell division. We studied the localization of fluorescent signals in HeLa cells using IC50 concentrations of compounds (6e, 6j, and 6n) at different time points using a confocal microscope. For all the compounds initially (at 12 h), the signal was present in the cytoplasm and the nucleus (Fig. 6A–C). With increasing time, the signal became more intense in the nucleus (Fig. 6A–D).
HeLa cells (60,000) were grown onto a coverslip (Coverglass for cell Growth™, Fisherbrand, USA) in a 24-well plate. […] Thereafter, cells were fixed in 4% paraformaldehyde (Himedia), washed with ice-cold 1X PBS, permeabilized with 0.25% Triton X-100 (Sigma), and washed with 0.1% PBST. The cell was counter stained with 49,6-diamidino-2-phenylindole, dihydrochloride (DAPI, Invitrogen) and mounted using one drop of ProLong® Gold antifade reagent (Invitrogen) on a slide. Images were acquired by fluorescence microscope (Leica SP8 TCS) and analyzed using ImageJ (NIH).

HeLa cells [6] = experiment: Apoptosis analysis, FITC Annexin V / PI flow cytometry; format: cell-based; conditions: IC50 concentration, 18 h
Description: The apoptotic effect of 6e, 6j, and 6n compounds on cancer cells was detected using FITC Annexin V Apoptosis Detection Kit I (BD Pharmingen™, NJ, USA) according to the manufacturer’s protocol. 0.5 × 10^6 […] HeLa cells were seeded in a 6-well plate and treated with IC50 concentrations for 18 h. Harvested cells were incubated with Annexin V FITC and PI PE-conjugated antibody and apoptosis was evaluated using FACSCalibur (BD Biosciences, CA, USA) flow cytometry. Data were analyzed using CellQuest Pro software (BD Biosciences).

behavior/activity versus control group (4T1 cell derived tumor; intraperitoneal): normal behavior/activity | pIC50 (HeLa cells [2]; HeLa, values given in rebuttal letter of peer review file): 4.59 | pIC50 (HeLa cells [2]; MTS, 18 h, cell line not named in the sentence (HeLa implied)): 4.60
Compound: Cc1cccc(C2C(C(=O)[O-])N(CCc3ccccc3)c3ccccc[c+]3N2Cc2ccccc2)c1 (stereo not shown) [Compound 6e]
tumor growth / tumor size (4T1 cell derived tumor; day 8 till day 20): inhibit tumor growth in vivo | body weight versus control group (4T1 cell derived tumor; intraperitoneal): no significant difference in body weight | effect on cell migration in scratch wound (HeLa cells [1]): inhibited cell migration significantly | effect on HeLa cell proliferation (HeLa cells [2]; 10 nM to 50 μM, 18 h): retarded HeLa cell proliferation in a dose dependent manner | Cell scavenging (HeLa cells [2]; HeLa, 50 μM, 18 h): 84.74% | viability at 18 h, 50 µM [3]: 15.2% | cells in G2/M phase (HeLa cells [4]; control 24.36%): 7.05% | cells in S phase (HeLa cells [4]; control 28.84%): 34.61% | cells in G0/G1 phase (HeLa cells [4]; control 46.78%): 58.33% | cellular localization of fluorescent signal (HeLa cells [5]): penetrate the cell membrane and localize to the nucleus | Late Apoptotic cells (FITC-AV+/PI+) (HeLa cells [6]; control 2.9 %): 15.6% | Early Apoptotic cells (FITC-AV+/PI-) (HeLa cells [6]; control 3.6 %): 62.5% | cells entered into apoptotic phase (HeLa cells [6]; control 6.5%): 78.2%
